Experimental findings from patent US20130165343A1, “IDENTIFICATION OF MULTIGENE BIOMARKERS” (AVEO Pharmaceuticals, Inc., priority 2011, published 2013) are described below.

The test system of assay [1] is BH murine tumor archive (HER2-dependent murine breast tumors). In words: Tumor response to tivozanib in subcutaneously transplanted BH archive murine breast tumors. The assay is classed as in vivo, mouse. From the text: (§1) A genetically diverse population of more than 100 murine breast tumors (BH archive) was used to identify tumors that are sensitive to a drug of interest (responders) and tumors that are resistant to the same drug of interest (non-responders). The BH archive was established by in vivo propagation and cryopreservation of primary tumor material from more than 100 spontaneous murine breast tumors derived from engineered chimeric mice that develop HER2-dependent, inducible spontaneous breast tumors.
The BH archive of more than 100 tumors was produced essentially as follows. Primary tumor cells were isolated from the chimeric animals by physical disruption of the tumors using cell strainers. Typically 1×10^5 cells were mixed with Matrigel (50:50 by vol.) and injected subcutaneously into female NCr nu/nu mice. When these tumors grew to approximately 500 mm3, which typically required 2 to 4 weeks, they were collected for one further round of in vivo propagation, after which tumor material was cryopreserved in liquid nitrogen. To characterize the propagated and archived tumors, 1×10^5 cells from each individual tumor line were thawed and injected subcutaneously in BALB/c nude mice. When the tumors reached a mean size of 500 to 800 mm3, animals were sacrificed and tumors were surgically removed for further analysis.
Tumors in the BH murine tumor archive were tested for sensitivity to treatment with tivozanib. Evaluation of tumor response to this drug treatment was performed essentially as follows. Subcutaneously transplanted tumors were established by injecting physically disrupted tumor cells (mixed with Matrigel) into 6 week-old female BALB/c nude mice. When the tumors reached approximately 100-200 mm3, 20 tumor-bearing mice were randomized into two groups. Group 1 received vehicle. Group 2 received tivozanib at 5 mg/kg daily by oral gavage. Tumors were measured twice per week by a caliper, and tumor volume was calculated.
The variation in response was expected, because the mouse model tumors had been propagated from spontaneously arising tumors, and were therefore expected to contain differing sets of secondary de novo mutations that contributed to tumorogenesis. […] Tivozanib-sensitive tumors and tivozanib-resistant tumors were identified (classified) on the basis of tumor growth inhibition, histopathology and IHC (CD31).

Assay [2] has the same test system. In words: Tumor response to rapamycin in subcutaneously transplanted BH archive murine breast tumors. The format is in vivo, mouse. The conditions noted are these: out of 66 tumors; 0.1 mg/kg daily, intraperitoneal injection.
Description: as §1
The BH archive of more than 100 tumors was produced essentially as follows. Primary tumor cells were isolated from the chimeric animals by physical disruption of the tumors using cell strainers. Typically 1×10^5 cells were mixed with Matrigel (50:50 by vol.) and injected subcutaneously into female NCr nu/nu mice. When these tumors grew to approximately 500 mm3, which typically required 2 to 4 weeks, they were collected for one further round of in vivo propagation, after which tumor material was cryopreserved in liquid nitrogen. […]
Tumors from the BH murine tumor archive were tested for sensitivity to treatment with rapamycin (also known as sirolimus, or RAPAMUNE®). […] Tumors were measured twice per week by a caliper, and tumor volume was calculated.

[3] abbreviates: out of 25 tumors, 5 mg/kg tivozanib, classified by tumor growth inhibition, histopathology and IHC (CD31).

`COc1cc2nccc(Oc3ccc(NC(=O)Nc4cc(C)on4)c(Cl)c3)c2cc1OC` [tivozanib]: the “tumor progression (by caliper measurement) in tivozanib-sensitive tumors” value in assay [1] (5 mg/kg daily by oral gavage, BALB/c nude mice, tivozanib-sensitive tumors) is “no tumor progression”. Further, in assay [1] (5 mg/kg, tivozanib-sensitive tumors, histopathology), the “tumor killing in tivozanib-sensitive tumors” value is “close to complete tumor killing, except for the peripheries”. Besides, in assay [1] (setting [3]), the “number of tumors actually resistant” value is on record as 16 and the “number of tumors actually sensitive” value is 9.
Consider `CO[C@H]1C[C@@H]2CC[C@@H](C)[C@@](O)(O2)C(=O)C(=O)N2CCCC[C@H]2C(=O)O[C@H]([C@H](C)C[C@@H]2CC[C@@H](O)[C@H](OC)C2)CC(=O)[C@H](C)/C=C(\C)[C@@H](O)[C@@H](OC)C(=O)[C@H](C)C[C@H](C)/C=C/C=C/C=C/1C` [rapamycin], for which, in assay [2], the “number of rapamycin-resistant tumors (50% tumor growth inhibition or less)” value amounted to 25 and the “number of rapamycin-sensitive tumors (more than 50% tumor growth inhibition)” value came out at 41.
